The subject of experiment [1] is HCV replicon 1AQ30D. Kind of experiment: Cell-based HCV Replicon Assay B, replicon 1AQ30D. In outline:
(§1)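 Replicon cells seeded in 5% FBS; compounds added 24 h later, then 3 days' incubation. Replicon RNA quantified by real-time RT-PCR with genotype-specific primers/probes (NS5B amplicon for 1b). EC50 = concentration raising CT by 1 over projected baseline.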

Experiment [2] has as its system HCV replicon 1B. Kind of experiment: Cell-based HCV Replicon Assay B, replicon 1B. In outline:
as §1

Experiment [3] has as its system HCV replicon 1A. Kind of experiment: Cell-based HCV Replicon Assay A, replicon 1A. In outline:
(§2)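 Replicon cells seeded at 2000 cells/well with compound, 10 serial dilutions starting at 333.3 nM to 1.667 nM, 0.5% DMSO, 5% FBS, harvested on day 3. Replicon RNA measured by multiplex TaqMan RT-PCR with cyclophilin as endogenous control, quantified from standard curves of Ct vs log ng RNA.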

For experiment [4], the system named is HCV replicon 2B. Kind of experiment: Cell-based HCV Replicon Assay A, replicon 2B. In outline:
as §2

For experiment [5], the system named is HCV replicon 1AY93H. Kind of experiment: Cell-based HCV Replicon Assay A, replicon 1AY93H. The note with it: read-out: 1A Y93H IC50, replicon 1AY93H. In outline:
as §2

Where [6] appears, read: read-out: 1A Q30D IC50, replicon 1AQ30D.
Setting [7] is: Hepatitis C virus, read-out: 1A Q30D IC50 (nM), replicon 1AQ30D.

The results in this text go back to patent publication US9555038B2, “Heterocycle-substituted tetracyclic compounds and methods of use thereof for the treatment of viral diseases” (Merck Sharp & Dohme Corp., priority 2013, dated 2017).

Read-outs that look alike come from different tables or passages of the source.

Regarding `COC(=O)NC(C(=O)N1CCC[C@H]1c1ncc(-c2ccc3c(c2)cc2n3C(c3cnc(C4CCOCC4)s3)Oc3cc(-c4cnc([C@@H]5CCCN5C(=O)[C@@H](NC(=O)OC)C(C)C)[nH]4)cc(F)c3-2)[nH]1)C1CCOC(C)(C)C1` (single isomer, unassigned) [Compound 448], the IC50 came out at 0.113 nM in experiment [1] (setting [6]); 6 pM in experiment [2] (Hepatitis C virus); 4.7 pM in experiment [3] (Hepatitis C virus); 0.011 nM in experiment [4] (read-out: 2B IC50, replicon 2B); 13 pM in experiment [5].

Turning to `COC(=O)NC(C(=O)N1CCC[C@H]1c1ncc(-c2ccc3c(c2)cc2n3C(c3cnc(C4CCOCC4)s3)Oc3cc(-c4cnc([C@@H]5CCCN5C(=O)[C@@H](NC(=O)OC)C(C)C)[nH]4)cc(F)c3-2)[nH]1)C1CCOC(C)(C)C1` (single isomer, unassigned) [Compound 449], the IC50 in experiment [1] (setting [6]) turned out to be 0.737 nM; in experiment [2] it was 3.4 pM; in experiment [3], 4.3 pM; in experiment [4] (read-out: 2B IC50, replicon 2B) it was 0.044 nM; in experiment [5] it was 64 pM.

On to `COC(=O)N[C@H](C(=O)N1CCC[C@H]1c1ncc(-c2cc(F)c3c(c2)OC(c2cnc(C4(C)CC4)s2)n2c-3cc3cc(-c4cnc([C@@H]5C[C@H]6C[C@H]6N5C(=O)[C@@H](NC(=O)OC)C(C)C)[nH]4)ccc32)[nH]1)C(C)C` (single isomer, unassigned) [Compound 452], for which the half-inhibitory concentration (IC50) is 0.093 nM in experiment [1] (setting [6]); 2.5 pM in experiment [2] (Hepatitis C virus); 2.7 pM in experiment [3] (Hepatitis C virus); 0.04 nM in experiment [4] (read-out: 2B IC50, replicon 2B); 4 pM in experiment [5].

With `COC(=O)N[C@H](C(=O)N1CCC[C@H]1c1ncc(-c2cc(F)c3c(c2)OC(c2cnc(C4(C)CC4)s2)n2c-3cc3cc(-c4cnc([C@@H]5C[C@H]6C[C@H]6N5C(=O)[C@@H](NC(=O)OC)C(C)C)[nH]4)ccc32)[nH]1)C(C)C` (single isomer, unassigned) [Compound 453], the 50% inhibitory concentration (IC50) was determined as 2.14 nM in experiment [1] (setting [6]); 2 pM in experiment [2]; 2.3 pM in experiment [3]; 0.65 nM in experiment [4] (read-out: 2B IC50, replicon 2B); 210 pM in experiment [5].

In the case of `COC(=O)N[C@H](C(=O)N1CCC[C@H]1c1ncc(-c2cc(F)c3c(c2)OC(c2cnc(C4(C)CCCC4)s2)n2c-3cc3cc(-c4cnc([C@@H]5C[C@H]6C[C@H]6N5C(=O)[C@@H](NC(=O)OC)C(C)C)[nH]4)ccc32)[nH]1)C(C)C` (single isomer, unassigned) [Compound 454], the IC50 in experiment [1] (setting [7]) was found to be 0.047 nM; in experiment [2] (Hepatitis C virus), 3.1 pM; in experiment [3] (Hepatitis C virus), 2.3 pM; in experiment [4] (Hepatitis C virus, read-out: 2B IC50 (nM), replicon 2B) it was 0.052 nM; in experiment [5], 2 pM.

For the compound `COC(=O)NC(C(=O)N1CCC[C@H]1c1ncc(-c2ccc3c(c2)cc2n3C(c3cnc(C4(C)CC4)s3)Oc3cc(-c4cnc([C@@H]5CCCN5C(=O)[C@@H](NC(=O)OC)C(C)C)[nH]4)cc(F)c3-2)[nH]1)C1CCOC(C)(C)C1` (single isomer, unassigned) [Compound 457], the IC50 worked out at 0.07 nM in experiment [1] (setting [6]); 3.6 pM in experiment [2] (Hepatitis C virus); 3.3 pM in experiment [3] (Hepatitis C virus); 0.005 nM in experiment [4] (read-out: 2B IC50, replicon 2B); 7 pM in experiment [5].

For the compound `COC(=O)NC(C(=O)N1CCC[C@H]1c1ncc(-c2ccc3c(c2)cc2n3C(c3cnc(C4(C)CC4)s3)Oc3cc(-c4cnc([C@@H]5CCCN5C(=O)[C@@H](NC(=O)OC)C(C)C)[nH]4)cc(F)c3-2)[nH]1)C1CCOC(C)(C)C1` (single isomer, unassigned) [Compound 458], the IC50 is 0.024 nM in experiment [1] (setting [6]); 3.5 pM in experiment [2]; 3 pM in experiment [3]; 0.007 nM in experiment [4] (read-out: 2B IC50, replicon 2B); 7 pM in experiment [5].

With `COC(=O)NC(C(=O)N1CCC[C@H]1c1ncc(-c2ccc3c(c2)cc2n3C(c3cnc(C4(C)CC4)s3)Oc3cc(-c4cnc([C@@H]5CCCN5C(=O)[C@@H](NC(=O)OC)C(C)C)[nH]4)cc(F)c3-2)[nH]1)C1C[C@@H](C)O[C@@H](C)C1` (single isomer, unassigned) [Compound 462], the IC50 in experiment [1] (setting [7]) was determined as 0.038 nM; in experiment [2], 3.1 pM; in experiment [3], 3.5 pM; in experiment [4] (read-out: 2B IC50, replicon 2B), 0.007 nM; in experiment [5], 7 pM.

On to `COC(=O)NC(C(=O)N1[C@@H]2C[C@@H]2C[C@H]1c1ncc(-c2ccc3c(c2)cc2n3C(c3cnc(C4(C)CC4)s3)Oc3cc(-c4cnc([C@@H]5CCCN5C(=O)[C@@H](NC(=O)OC)C(C)C)[nH]4)cc(F)c3-2)[nH]1)C1C[C@@H](C)O[C@@H](C)C1` (single isomer, unassigned) [Compound 463], for which the IC50 in experiment [1] (setting [6]) was 0.012 nM; in experiment [2] (Hepatitis C virus) it was 2.8 pM; in experiment [3] (Hepatitis C virus) it was 2.6 pM; in experiment [4] (read-out: 2B IC50, replicon 2B), 0.007 nM; in experiment [5] it was 2 pM.

Take `COC(=O)NC(C(=O)N1[C@@H]2C[C@@H]2C[C@H]1c1ncc(-c2ccc3c(c2)cc2n3C(c3cnc(C4(C)CC4)s3)Oc3cc(-c4cnc([C@@H]5CCCN5C(=O)[C@@H](NC(=O)OC)C(C)C)[nH]4)cc(F)c3-2)[nH]1)C1C[C@@H](C)O[C@@H](C)C1` (single isomer, unassigned) [Compound 464]: the IC50 in experiment [1] (setting [6]) turned out to be 1.23 nM; in experiment [2] it was 3.4 pM; in experiment [3], 2.8 pM; in experiment [4] (read-out: 2B IC50, replicon 2B) it was 0.282 nM; in experiment [5], 197 pM.

Regarding `COC(=O)NC(C(=O)N1[C@@H]2C[C@@H]2C[C@H]1c1ncc(-c2ccc3c(c2)cc2n3C(c3cnc(C4(C)CC4)s3)Oc3cc(-c4cnc([C@@H]5CCCN5C(=O)[C@@H](NC(=O)OC)C(C)C)[nH]4)cc(F)c3-2)[nH]1)C1CCOC(C)(C)C1` (single isomer, unassigned) [Compound 465], the IC50 in experiment [1] (setting [6]) amounted to 0.022 nM; in experiment [2] (Hepatitis C virus), 3.9 pM; in experiment [3] (Hepatitis C virus), 2.7 pM; in experiment [4] (read-out: 2B IC50, replicon 2B), 0.005 nM; in experiment [5] it was 2 pM.

Turning to `COC(=O)NC(C(=O)N1[C@@H]2C[C@@H]2C[C@H]1c1ncc(-c2ccc3c(c2)cc2n3C(c3cnc(C4(C)CC4)s3)Oc3cc(-c4cnc([C@@H]5CCCN5C(=O)[C@@H](NC(=O)OC)C(C)C)[nH]4)cc(F)c3-2)[nH]1)C1CCOC(C)(C)C1` (single isomer, unassigned) [Compound 466], the IC50 in experiment [1] (setting [6]) was determined as 0.015 nM; in experiment [2], 3 pM; in experiment [3], 2.7 pM; in experiment [4] (read-out: 2B IC50, replicon 2B) it was 0.005 nM; in experiment [5], 2 pM.

Consider `COC(=O)NC(C(=O)N1[C@@H]2C[C@@H]2C[C@H]1c1ncc(-c2ccc3c(c2)cc2n3C(c3cnc(C4(C)CC4)s3)Oc3cc(-c4cnc([C@@H]5CCCN5C(=O)[C@@H](NC(=O)OC)C(C)C)[nH]4)cc(F)c3-2)[nH]1)C1CCOC(C)(C)C1` (single isomer, unassigned) [Compound 467], for which the half-maximal inhibitory concentration (IC50) in experiment [1] (setting [6]) was 1.4 nM; in experiment [2], 3.4 pM; in experiment [3] it was 3 pM; in experiment [4] (read-out: 2B IC50, replicon 2B), 0.158 nM; in experiment [5], 209 pM.

In the case of `COC(=O)NC(C(=O)N1[C@@H]2C[C@@H]2C[C@H]1c1ncc(-c2ccc3c(c2)cc2n3C(c3cnc(C4(C)CC4)s3)Oc3cc(-c4cnc([C@@H]5CCCN5C(=O)[C@@H](NC(=O)OC)C(C)C)[nH]4)cc(F)c3-2)[nH]1)C1CCOC(C)(C)C1` (single isomer, unassigned) [Compound 468], the IC50 came out at 1.23 nM in experiment [1] (setting [6]); 2.9 pM in experiment [2]; 3.3 pM in experiment [3]; 0.234 nM in experiment [4] (read-out: 2B IC50, replicon 2B); 155 pM in experiment [5].

Turning to `COC(=O)NC(C(=O)N1CCC[C@H]1c1ncc(-c2ccc3c(c2)cc2n3C(c3cnc(C4(C)CCCC4)s3)Oc3cc(-c4cnc([C@@H]5CCCN5C(=O)[C@@H](NC(=O)OC)C(C)C)[nH]4)cc(F)c3-2)[nH]1)C1C[C@@H](C)O[C@@H](C)C1` (single isomer, unassigned) [Compound 469], the concentration for half-maximal inhibition (IC50) in experiment [1] (setting [7]) was 0.019 nM; in experiment [2] (Hepatitis C virus), 3.4 pM; in experiment [3] (Hepatitis C virus), 3 pM; in experiment [4] (read-out: 2B IC50, replicon 2B), 0.005 nM; in experiment [5], 2 pM.

In the case of `COC(=O)NC(C(=O)N1CCC[C@H]1c1ncc(-c2ccc3c(c2)cc2n3C(c3cnc(C4(C)CCCC4)s3)Oc3cc(-c4cnc([C@@H]5CCCN5C(=O)[C@@H](NC(=O)OC)C(C)C)[nH]4)cc(F)c3-2)[nH]1)C1CCOC(C)(C)C1` (single isomer, unassigned) [Compound 471], the IC50 in experiment [1] (setting [6]) worked out at 0.013 nM; in experiment [2], 3.5 pM; in experiment [3] it was 2.8 pM; in experiment [4] (read-out: 2B IC50, replicon 2B), 0.004 nM; in experiment [5], 3 pM.

In the case of `COC(=O)NC(C(=O)N1CCC[C@H]1c1ncc(-c2ccc3c(c2)cc2n3C(c3cnc(C4(C)CCCC4)s3)Oc3cc(-c4cnc([C@@H]5CCCN5C(=O)[C@@H](NC(=O)OC)C(C)C)[nH]4)cc(F)c3-2)[nH]1)C1CCOC(C)(C)C1` (single isomer, unassigned) [Compound 472], the IC50 in experiment [1] (setting [6]) stood at 2.7 nM; in experiment [2], 3.6 pM; in experiment [3], 2.1 pM; in experiment [4] (read-out: 2B IC50, replicon 2B) it was 0.15 nM; in experiment [5], 555 pM.

Turning to `COC(=O)NC(C(=O)N1[C@@H]2C[C@@H]2C[C@H]1c1ncc(-c2ccc3c(c2)cc2n3C(c3cnc(C4(C)CCCC4)s3)Oc3cc(-c4cnc([C@@H]5CCCN5C(=O)[C@@H](NC(=O)OC)C(C)C)[nH]4)cc(F)c3-2)[nH]1)C1C[C@@H](C)O[C@@H](C)C1` (single isomer, unassigned) [Compound 473], the IC50 was 0.011 nM in experiment [1] (setting [7]); 2.8 pM in experiment [2] (Hepatitis C virus); 2.6 pM in experiment [3] (Hepatitis C virus); 0.01 nM in experiment [4] (read-out: 2B IC50, replicon 2B); 2 pM in experiment [5].
